Assay results published in patent US8222264B2, “Substituted amino-quinazolinones, medicaments comprising said compound, their use and their method of manufacture” (Boehringer Ingelheim International GmbH, priority 2007, dated 2012).

Target: T1, β-secretase (ectodomain of BACE, amino acids 1-454) (Homo sapiens, UniProt P56817)
T1 construct: poly-histidine; made in house; host or cells: HEK293/APP/BACEect. cells; unpurified culture supernatant in OptiMEM used as enzyme source
Assay: β-secretase activity assay, fluorescence-quenched Cy3/Cy5Q peptide substrate
Type: biochemical
Details: 100 μM test compound; positive control minus negative control = 100%; values above 100% adjusted to 100%
Description: To calculate the IC50 value of a substance different amounts of substance are incubated with the β-secretase in an assay. The IC50 value of a compound is defined as the concentration of substance at which a 50% reduction in the detected signal is measured, compared with the mixture without the test compound. Substances are evaluated as inhibiting β-secretase if under these conditions their IC50 value is less than 50 μM, preferably less than 10 μM and particularly preferably less than 1 μM.
In detail, an assay for detecting β-secretase activity may be as follows: The ectodomain of BACE (amino acids 1-454) fused to the recognition sequence for an anti-Myc antibody and a poly-histidine is secreted overnight by HEK293/APP/BACEect. cells in OptiMEM® (Invitrogen). A 10 μl aliquot of this cell culture supernatant is used as the enzyme source. The enzyme is stable over more than 3 months' storage at 4° C. or −20° C. in OptiMEM®. The substrate used is a peptide with the amino acid sequence SEVNLDAEFK, to which the Cy3 fluorophore (Amersham) is coupled N-terminally and the Cy5Q fluorophore (Amersham) is coupled C-terminally. The substrate is dissolved in DMSO in a concentration of 1 mg/ml and used in the experiment in a concentration of 1 μM. The test mixture also contains 20 mM NaOAc, pH 4.4 and a maximum of 1% DMSO. The test is carried out in a 96-well plate in a total volume of 200 μl for 30 minutes at 30° C. The cleaving of the substrate is recorded kinetically in a fluorimeter (ex: 530 nm, em: 590 nm). The assay is started by adding the substrate.
Mixtures without enzyme (i.e. negative control) or without inhibitor (i.e. positive control) are included in each plate as controls.
The activity of the positive control (minus the negative control=background) is set to 100% and activity in the presence of test compound is expressed relative to these 100%. […]
IC50 can be calculated with Graph Pad Prism or other suited software setting the positive control minus the negative control as 100. […]

T1 sequence (P56817 22-454): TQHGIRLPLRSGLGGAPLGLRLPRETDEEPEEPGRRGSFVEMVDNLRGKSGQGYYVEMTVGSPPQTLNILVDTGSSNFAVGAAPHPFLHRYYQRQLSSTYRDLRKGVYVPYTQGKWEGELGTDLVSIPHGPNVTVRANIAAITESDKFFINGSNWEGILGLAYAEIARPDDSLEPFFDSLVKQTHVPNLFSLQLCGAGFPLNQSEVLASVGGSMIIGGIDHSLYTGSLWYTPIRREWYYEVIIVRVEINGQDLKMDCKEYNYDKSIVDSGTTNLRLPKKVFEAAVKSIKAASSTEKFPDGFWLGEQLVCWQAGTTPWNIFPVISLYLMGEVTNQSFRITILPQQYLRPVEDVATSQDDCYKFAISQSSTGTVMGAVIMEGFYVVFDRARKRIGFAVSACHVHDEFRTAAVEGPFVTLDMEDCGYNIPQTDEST

inhibition at 100 µM [%] | Compound
98 | CN(C(=O)CC[C@@H](C1CCCCC1)n1c(N)nc2ccc(Oc3ccccc3)cc2c1=O)C1CCCCC1 [Example 1]
81 | CCOc1ccccc1-c1ccc2nc(N)n(C(CCC(=O)N(C)C3CCCCC3)C3CCCCC3)c(=O)c2c1 (stereo not drawn) [Example 2]
91 | CN(C(=O)CCC(C1CCCCC1)n1c(N)nc2ccc(Br)cc2c1=O)C1CCCCC1 (stereo not drawn) [Example 3]
